What is called AC50 is the concentration at which the activity in the assay is half-maximal.

One assay has as its target T1, human NPR1 (Homo sapiens, UniProt P16066).
T1 construct: host or cells: CHO-K1
T1 sequence (P16066 33-1061): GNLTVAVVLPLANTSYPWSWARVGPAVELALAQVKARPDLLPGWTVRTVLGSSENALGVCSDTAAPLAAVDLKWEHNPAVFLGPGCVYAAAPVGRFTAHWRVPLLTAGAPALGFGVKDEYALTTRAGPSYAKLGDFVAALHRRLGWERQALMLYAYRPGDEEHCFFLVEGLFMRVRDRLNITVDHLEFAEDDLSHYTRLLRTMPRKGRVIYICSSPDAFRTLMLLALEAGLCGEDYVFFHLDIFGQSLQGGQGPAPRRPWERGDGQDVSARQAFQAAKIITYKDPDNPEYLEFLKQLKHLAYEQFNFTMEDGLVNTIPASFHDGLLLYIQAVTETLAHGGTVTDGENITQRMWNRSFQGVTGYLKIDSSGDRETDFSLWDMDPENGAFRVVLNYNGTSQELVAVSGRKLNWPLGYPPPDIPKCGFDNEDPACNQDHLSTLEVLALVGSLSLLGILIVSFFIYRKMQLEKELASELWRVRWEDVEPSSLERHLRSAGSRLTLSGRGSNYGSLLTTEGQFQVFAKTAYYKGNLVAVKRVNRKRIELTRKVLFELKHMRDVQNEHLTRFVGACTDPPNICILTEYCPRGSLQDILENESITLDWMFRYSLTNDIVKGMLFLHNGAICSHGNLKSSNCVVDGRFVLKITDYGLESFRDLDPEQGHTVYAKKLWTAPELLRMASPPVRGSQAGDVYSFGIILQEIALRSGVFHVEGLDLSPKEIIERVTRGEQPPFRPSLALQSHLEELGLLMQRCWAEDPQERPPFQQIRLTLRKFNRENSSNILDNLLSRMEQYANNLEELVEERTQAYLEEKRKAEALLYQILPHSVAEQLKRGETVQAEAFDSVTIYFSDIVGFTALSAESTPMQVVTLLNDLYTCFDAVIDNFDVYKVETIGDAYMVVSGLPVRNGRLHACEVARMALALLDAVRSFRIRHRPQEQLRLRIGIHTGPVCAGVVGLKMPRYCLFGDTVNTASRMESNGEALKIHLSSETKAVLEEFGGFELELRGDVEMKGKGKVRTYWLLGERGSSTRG
In words: Cellular cGMP production assay, human NPR1 expressing CHO-K1 cells (CisBio HTRF). Type of assay: cell-based. The conditions noted are these: for AC50: cGMP production, 30 min at 37° C., 12-point dose-response from 30 μM; for Human NPR1 Amax (% of ANP): maximum cGMP production as percentage of the maximum cGMP produced with ANP. In short, it runs like this:
(§1)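 Read-out was HTRF (excitation 317 nm, emission 665 nm), with cGMP quantified as Delta F against a calibrator standard curve. Beforehand, cells were exposed for 30 min at 37 °C to compound (30 μM top, twelve 3-fold steps) in IBMX-containing PBS/BSA buffer, then lysed.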
On the technique in general: TR-FRET usually uses a lanthanide donor and a delayed reading to cut background.

The target of the next assay is monkey NPR1 (Macaca fascicularis, UniProt A0A7N9DBT9). In words: Cellular cGMP production assay, monkey NPR1 expressing CHO-K1 cells (CisBio HTRF). Particulars: for Monkey NPR1 Amax (% of ANP): maximum cGMP production as percentage of the maximum cGMP produced with ANP. Format: cell-based. In a few lines:
as §1

Setting [1] is: cGMP production, monkey NPR1 CHO-K1 cells, 30 min at 37° C., 12-point dose-response from 30 μM, read-out: Monkey NPR1 AC50.

Structures are written as SMILES. Where two headings read alike, the source gives them in different places.

Chain of monkey NPR1 (A0A7N9DBT9 entry or part of it): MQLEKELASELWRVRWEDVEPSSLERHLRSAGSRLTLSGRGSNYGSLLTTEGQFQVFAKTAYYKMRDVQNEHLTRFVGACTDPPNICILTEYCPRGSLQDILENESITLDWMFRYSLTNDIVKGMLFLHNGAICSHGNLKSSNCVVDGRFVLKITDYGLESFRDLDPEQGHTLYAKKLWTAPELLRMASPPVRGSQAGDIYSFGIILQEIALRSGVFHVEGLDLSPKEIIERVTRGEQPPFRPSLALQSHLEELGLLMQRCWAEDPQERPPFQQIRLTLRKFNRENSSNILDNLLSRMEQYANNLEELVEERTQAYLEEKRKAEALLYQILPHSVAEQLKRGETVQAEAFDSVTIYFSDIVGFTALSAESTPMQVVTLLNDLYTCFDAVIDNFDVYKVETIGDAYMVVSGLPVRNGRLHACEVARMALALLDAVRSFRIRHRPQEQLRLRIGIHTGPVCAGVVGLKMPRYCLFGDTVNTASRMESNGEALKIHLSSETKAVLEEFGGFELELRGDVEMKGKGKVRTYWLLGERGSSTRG

In the case of `CC[C@@H](Nc1nc2c(c(N[C@@H](CN3CCC[C@H](C)C3)c3cnn(C)c3)n1)C[C@H](c1ccccc1)CC2)[C@H]1CC[C@H](C(=O)O)CC1` [Compound 32, (1R,4r)-4-((R)-1-(((R)-4-(((R)-1-(1-methyl-1H-pyrazol-4-yl)-2-((S)-3-methylpiperidin-1-yl)ethyl)amino)-6-phenyl-5,6,7,8-tetrahydroquinazolin-2-yl)amino)propyl)cyclohexane-1-carboxylic acid], at human NPR1, the activity was half-maximal at 144 nM (AC50) and the “Human NPR1 Amax (% of ANP)” value is 99.842 % of ANP. Further, the AC50 at monkey NPR1 (setting [1]) amounted to 84 nM. Moreover, the “Monkey NPR1 Amax (% of ANP)” value at monkey NPR1 (monkey NPR1 CHO-K1 cells) is 92.720 % of ANP.
With `CC[C@H]([C@H]1CC[C@H](C(=O)O)CC1)N(C)c1nc2c(c(N[C@@H](CN3C4CCCC3CC4)c3cnn(C)c3)n1)C[C@H](c1cccc(F)c1)CC2` [Compound 33, (1R,4r)-4-((1R)-1-(((6R)-4-(((1R)-2-(8-azabicyclo[3.2.1]octan-8-yl)-1-(1-methyl-1H-pyrazol-4-yl)ethyl)amino)-6-(3-fluorophenyl)-5,6,7,8-tetrahydroquinazolin-2-yl)(methyl)amino)propyl)cyclohexane-1-carboxylic acid], at human NPR1, the AC50 is 145 nM and the “Human NPR1 Amax (% of ANP)” value is 99.163 % of ANP. The AC50 at monkey NPR1 amounted to 104 nM. For the same molecule, the “Monkey NPR1 Amax (% of ANP)” value at monkey NPR1 (monkey NPR1 CHO-K1 cells) is listed as 106.934 % of ANP.
The like results for `CC[C@H]([C@H]1CC[C@H](C(=O)O)CC1)N(C)c1nc2c(c(N[C@@H](CN3C4CCCC3CC4)c3cnn(C)c3)n1)C[C@](C)(c1ccccc1)CC2` [Compound 34, (1R,4r)-4-((1R)-1-(((6R)-4-(((1R)-2-(8-azabicyclo[3.2.1]octan-8-yl)-1-(1-methyl-1H-pyrazol-4-yl)ethyl)amino)-6-methyl-6-phenyl-5,6,7,8-tetrahydroquinazolin-2-yl)(methyl)amino)propyl)cyclohexane-1-carboxylic acid] were, in that order, 146 nM, 95.375 % of ANP, 91 nM and 100.553 % of ANP.
With `CC[C@H]([C@H]1CC[C@H](C(=O)O)CC1)N(C)c1nc2c(c(N[C@@H](CN3CCC[C@H](COC)C3)c3cnn(C)c3)n1)C[C@H](c1cccc(F)c1)CC2` [Compound 35, (1R,4r)-4-((R)-1-(((R)-6-(3-fluorophenyl)-4-(((R)-2-((S)-3-(methoxymethyl)piperidin-1-yl)-1-(1-methyl-1H-pyrazol-4-yl)ethyl)amino)-5,6,7,8-tetrahydroquinazolin-2-yl)(methyl)amino)propyl)cyclohexane-1-carboxylic acid], the AC50 at human NPR1 came to 148 nM; on monkey NPR1 (setting [1]), 127 nM. On human NPR1, the “Human NPR1 Amax (% of ANP)” value is reported as 92.607 % of ANP. Besides, the “Monkey NPR1 Amax (% of ANP)” value at monkey NPR1 (monkey NPR1 CHO-K1 cells) is listed as 104.934 % of ANP.
On the same counts, the results for `CC[C@H](N(C)c1nc2c(c(N[C@@H](CN3CCC[C@@H](CF)C3)c3cnn(C)c3)n1)C[C@@](C)(c1ccccc1)CC2)C12CC(C(=O)O)(C1)C2` [Compound 36, 3-((S)-1-(((S)-4-(((R)-2-((R)-3-(fluoromethyl)piperidin-1-yl)-1-(1-methyl-1H-pyrazol-4-yl)ethyl)amino)-6-methyl-6-phenyl-5,6,7,8-tetrahydroquinazolin-2-yl)(methyl)amino)propyl)bicyclo[1.1.1]pentane-1-carboxylic acid] are 150 nM, 133 nM, 101.036 % of ANP and 101.251 % of ANP.
The like results for `CC[C@@H](Nc1nc2c(c(N[C@@H](CN3CCCCC3)c3ccccc3)n1)C[C@@H](c1cccc(F)c1)CC2)[C@H]1CC[C@H](C(=O)O)CC1` [Compound 37, (1R,4r)-4-((R)-1-(((S)-6-(3-fluorophenyl)-4-(((R)-1-phenyl-2-(piperidin-1-yl)ethyl)amino)-5,6,7,8-tetrahydroquinazolin-2-yl)amino)propyl)cyclohexane-1-carboxylic acid] were, in that order, 150 nM, 158 nM, 105.989 % of ANP and 107.224 % of ANP.
On the same counts, the results for `CC[C@@H](Nc1nc2c(c(N[C@@H](CN3C4CC5CC(C4)CC3C5)c3cnn(CC)c3)n1)C[C@H](c1ccccc1)CC2)[C@H]1CC[C@H](C(=O)O)CC1` [Compound 38, (1R,4r)-4-((R)-1-(((R)-4-(((R)-2-((1R,3R,5R,7R)-2-azaadamantan-2-yl)-1-(1-ethyl-1H-pyrazol-4-yl)ethyl)amino)-6-phenyl-5,6,7,8-tetrahydroquinazolin-2-yl)amino)propyl)cyclohexane-1-carboxylic acid] are 161 nM, 83 nM, 101.675 % of ANP and 101.007 % of ANP.
With `CC[C@H]([C@H]1CC[C@H](CC(=O)O)CC1)N(C)c1nc2c(c(N[C@@H](CN3CCC[C@H](C)C3)c3cnn(C)c3)n1)C[C@H](c1cccc(F)c1)CC2` [Compound 39, 2-((1R,4r)-4-((R)-1-(((R)-6-(3-fluorophenyl)-4-(((R)-1-(1-methyl-1H-pyrazol-4-yl)-2-((S)-3-methylpiperidin-1-yl)ethyl)amino)-5,6,7,8-tetrahydroquinazolin-2-yl)(methyl)amino)propyl)cyclohexyl)acetic acid], on human NPR1, the activity was half-maximal at 162 nM (AC50) and the “Human NPR1 Amax (% of ANP)” value is on record as 100.189 % of ANP. The half-maximal activity concentration (AC50) at monkey NPR1 (setting [1]) was 102 nM. Also, the “Monkey NPR1 Amax (% of ANP)” value on monkey NPR1 (monkey NPR1 CHO-K1 cells) is 97.588 % of ANP.
`CC[C@H]([C@H]1CC[C@H](C(=O)O)CC1)N(C)c1nc2c(c(N[C@@H](CN3CCC[C@H](C)C3)c3cnn(C)c3)n1)C[C@H](c1ccccc1)CC2` [Compound 40, (1R,4r)-4-((R)-1-(methyl((R)-4-(((R)-1-(1-methyl-1H-pyrazol-4-yl)-2-((S)-3-methylpiperidin-1-yl)ethyl)amino)-6-phenyl-5,6,7,8-tetrahydroquinazolin-2-yl)amino)propyl)cyclohexane-1-carboxylic acid]: the AC50 was determined as 166 nM on human NPR1 and 127 nM at monkey NPR1 (setting [1]). In addition, on human NPR1, the “Human NPR1 Amax (% of ANP)” value is 102.476 % of ANP. Moreover, the “Monkey NPR1 Amax (% of ANP)” value on monkey NPR1 (monkey NPR1 CHO-K1 cells) is 105.150 % of ANP.
For `CC[C@@H](N(C)c1nc2c(c(N[C@@H](CN3C4CCCC3CCC4)c3cnn(C)c3)n1)C[C@H](c1ccccc1F)CC2)C12CC(C(=O)O)(C1)C2` [Compound 41, 3-((R)-1-(((R)-4-(((R)-2-(9-azabicyclo[3.3.1]nonan-9-yl)-1-(1-methyl-1H-pyrazol-4-yl)ethyl)amino)-6-(2-fluorophenyl)-5,6,7,8-tetrahydroquinazolin-2-yl)(methyl)amino)propyl)bicyclo[1.1.1]pentane-1-carboxylic acid], at human NPR1, the activity was half-maximal at 168 nM (AC50) and the “Human NPR1 Amax (% of ANP)” value was 96.843 % of ANP. The activity at monkey NPR1 was half-maximal at 144 nM (AC50). In addition, the “Monkey NPR1 Amax (% of ANP)” value on monkey NPR1 (monkey NPR1 CHO-K1 cells) is 92.494 % of ANP.
The like results for `CC[C@@H](N(C)c1nc2c(c(N[C@@H](CN3C4CCCC3CC4)c3cnn(CC)c3)n1)C[C@H](c1cccc(F)c1)CC2)C12CC(C(=O)O)(C1)C2` [Compound 42, 3-((1R)-1-(((6R)-4-(((1R)-2-(8-azabicyclo[3.2.1]octan-8-yl)-1-(1-ethyl-1H-pyrazol-4-yl)ethyl)amino)-6-(3-fluorophenyl)-5,6,7,8-tetrahydroquinazolin-2-yl)(methyl)amino)propyl)bicyclo[1.1.1]pentane-1-carboxylic acid] were, in that order, 169 nM, 92.080 % of ANP, 146 nM and 101.138 % of ANP.

The record behind these values is patent US12129246B1, “Hydroquinazoline derivatives for the treatment of a disease or disorder” (Novartis AG, priority 2023, dated 2024).
